The text below walks through data of ChEMBL document CHEMBL1142346, “Quantitative structural-activity relationship (QSAR) study for fungicidal activities of thiazoline derivatives against rice blast” (2008).

Each structure is given as a SMILES string.

This experiment deals with Pyricularia grisea. In words: Antifungal activity against Magnaporthe grisea infected rice plant assessed as logarithm of fungal control value at 100 ppm after 5 days. In kind it is functional.

Take `Cn1c(CC(=O)Nc2ccc(Cl)cc2)cs/c1=N\c1ccc(-c2ccccc2)cc1`: the Activity is recorded as 1.98.

Take `Cc1ccc(/N=c2\scc(CC(=O)Nc3ccc(OC(F)(F)F)cc3)n2C)c(C)c1`: the Activity is reported as 1.23.

`COc1ccc(/N=c2\scc(CC(=O)Nc3ccc(C(F)F)cc3)n2C)cc1`: the Activity is 1.4.

For `CCc1ccc(NC(=O)Cc2cs/c(=N\c3ccc(C#N)c(Cl)c3)n2C)cc1`, the Activity came to 1.98.

`COc1ccc(NC(=O)Cc2cs/c(=N/c3ccc(OC(F)(F)F)cc3)n2C)cc1`: the Activity turned out to be 1.99.

Take `Cn1c(CC(=O)Nc2ccc(Cl)cc2)cs/c1=N\c1cccc(Br)c1`: the Activity stood at 1.98.

For `CCCCCOc1ccc(/N=c2/scc(CC(=O)Nc3ccc(CC)cc3)n2C)cc1`, the Activity is 1.96.

For the molecule `CCc1ccc(NC(=O)Cc2cs/c(=N/c3ccc(-c4ccccc4)cc3)n2C)cc1`, the Activity is 1.99.

Regarding `CCc1ccc(NC(=O)Cc2cs/c(=N\c3ccc([N+](=O)[O-])cc3OC)n2C)cc1`, the Activity stood at 1.81.

Turning to `CCc1ccc(NC(=O)Cc2cs/c(=N/c3ccc(CC#N)cc3)n2C)cc1`, the Activity was found to be 2.

For `CCCCOc1ccc(NC(=O)Cc2cs/c(=N\c3cccc(F)c3)n2C)cc1`, the Activity worked out at 1.

On to `Cn1c(CC(=O)Nc2ccc(Cl)cc2)cs/c1=N\c1cccc(F)c1`, for which the Activity is recorded as 1.96.

In the case of `Cn1c(CC(=O)Nc2ccc(OC(F)(F)F)cc2)cs/c1=N/c1ccc(Cl)cc1`, the Activity stood at 1.52.

With `CCCCc1ccc(/N=c2\scc(CC(=O)Nc3ccc(Cl)cc3)n2C)cc1`, the Activity was determined as 1.97.

For `CCc1ccc(NC(=O)Cc2cs/c(=N/c3ccc(C(C)=O)cc3)n2C)cc1`, the Activity is recorded as 2.

For `Cn1c(CC(=O)Nc2ccc(C(F)F)cc2)cs/c1=N\c1ccc(Br)cc1`, the Activity is reported as 1.4.

For the molecule `COc1ccc(NC(=O)Cc2cs/c(=N\c3ccc(C)c(F)c3)n2C)cc1`, the Activity came out at 1.98.

Turning to `CCc1ccc(NC(=O)Cc2cs/c(=N\c3ccc(Br)cc3)n2C)cc1`, the Activity is given as 1.98.

As to `CCc1ccc(NC(=O)Cc2cs/c(=N/c3ccc(OC(F)(F)F)cc3)n2C)cc1` (stereo in doubt; 5), the Activity is 1.99.

For the molecule `Cn1c(CC(=O)Nc2ccc(C(F)F)cc2)cs/c1=N\c1ccc(Cl)cc1`, the Activity is 1.52.

For the molecule `CCc1ccc(NC(=O)Cc2cs/c(=N\c3ccccc3F)n2C)cc1`, the Activity is given as 1.99.

For the molecule `Cn1c(CC(=O)Nc2ccc(Oc3ccccc3)cc2)cs/c1=N\c1cccc(F)c1`, the Activity is on record as 1.23.

Consider `Cn1c(CC(=O)Nc2ccc(OC(F)(F)F)cc2)cs/c1=N\c1cccc(Br)c1`, for which the Activity was 1.7.

Take `Cn1c(CC(=O)Nc2ccc(OC(F)(F)F)cc2)cs/c1=N\c1ccc(F)cc1`: the Activity is on record as 0.9.

As to `COc1ccc(NC(=O)Cc2cs/c(=N\c3cccc(C)c3)n2C)cc1`, the Activity was determined as 1.98.

On to `CCc1ccc(NC(=O)Cc2cs/c(=N\c3cccc([N+](=O)[O-])c3)n2C)cc1`, for which the Activity is reported as 1.99.

Regarding `COc1cccc(/N=c2\scc(CC(=O)Nc3ccc(Cl)cc3)n2C)c1`, the Activity turned out to be 1.76.

`CCCCCCc1ccc(/N=c2/scc(CC(=O)Nc3ccc(CC)cc3)n2C)cc1`: the Activity was 2.

`Cn1c(CC(=O)Nc2ccc(OC(F)(F)F)cc2)cs/c1=N\c1cccc(C(F)(F)F)c1`: the Activity is recorded as 1.7.

On to `COc1ccc(NC(=O)Cc2cs/c(=N\c3ccc(C)cc3C)n2C)cc1`, for which the Activity is reported as 1.96.

With `COc1ccc(NC(=O)Cc2cs/c(=N\c3ccc(OC)c(Cl)c3)n2C)cc1`, the Activity came out at 1.98.

As for `COc1ccc(NC(=O)Cc2cs/c(=N/c3ccc(SC)cc3)n2C)cc1`, the Activity stood at 1.96.

Take `COc1ccc(NC(=O)Cc2cs/c(=N\c3cccc(Br)c3)n2C)cc1`: the Activity came out at 1.99.

As to `COc1ccc(NC(=O)Cc2cs/c(=N/c3ccc([N+](=O)[O-])cc3)n2C)cc1`, the Activity is 2.

Turning to `COc1ccc(NC(=O)Cc2cs/c(=N\c3ccc(Cl)c(C(F)(F)F)c3)n2C)cc1`, the Activity is on record as 2.

Turning to `COc1ccc(NC(=O)Cc2cs/c(=N\c3ccccc3Br)n2C)cc1`, the Activity was found to be 1.92.

`COc1ccc(NC(=O)Cc2cs/c(=N\c3ccc(C(F)(F)F)cc3)n2C)cc1`: the Activity came to 1.99.

As for `Cn1c(CC(=O)Nc2ccc(Oc3ccccc3)cc2)cs/c1=N\c1cccc(Br)c1`, the Activity stood at 0.9.

For the molecule `CCc1ccc(NC(=O)Cc2cs/c(=N\c3cccc(Cl)c3C)n2C)cc1`, the Activity came out at 1.95.

`COc1ccc(NC(=O)Cc2cs/c(=N\c3cccc(F)c3)n2C)cc1`: the Activity is given as 1.97.

For the molecule `CCc1ccc(NC(=O)Cc2cs/c(=N\c3ccc(Cl)cc3Cl)n2C)cc1`, the Activity is given as 1.96.

For `CCc1ccc(NC(=O)Cc2cs/c(=N\c3ccc(Br)cc3C)n2C)cc1`, the Activity was 1.98.

On to `COc1ccc(NC(=O)Cc2cs/c(=N\c3ccc(F)c(Cl)c3)n2C)cc1`, for which the Activity worked out at 1.98.

As to `CCc1ccc(NC(=O)Cc2cs/c(=N\c3ccc(OC)cc3C)n2C)cc1`, the Activity is listed as 2.

For `COc1ccc(NC(=O)Cc2cs/c(=N\c3ccccc3C(C)C)n2C)cc1`, the Activity is 1.9.

For `COc1ccc(NC(=O)Cc2cs/c(=N\c3cccc([N+](=O)[O-])c3)n2C)cc1`, the Activity was 1.99.

Turning to `CCc1ccc(NC(=O)Cc2cs/c(=N\c3ccc(F)cc3Cl)n2C)cc1`, the Activity is 1.98.

On to `COc1ccc(NC(=O)Cc2cs/c(=N\c3cccc(C(F)(F)F)c3)n2C)cc1`, for which the Activity was found to be 2.

Turning to `CCc1ccc(NC(=O)Cc2cs/c(=N\c3ccc(F)c(Cl)c3)n2C)cc1`, the Activity is 1.98.

On to `COc1ccc(NC(=O)Cc2cs/c(=N\c3ccccc3Cl)n2C)cc1`, for which the Activity is reported as 1.98.

Take `COc1ccc(NC(=O)Cc2cs/c(=N\c3ccccc3F)n2C)cc1`: the Activity worked out at 1.99.

Regarding `CCOc1ccc(NC(=O)Cc2cs/c(=N\c3cccc(Br)c3)n2C)cc1`, the Activity was found to be 1.91.

With `Cn1c(CC(=O)Nc2ccc([N+](=O)[O-])cc2)cs/c1=N\c1ccc(F)cc1F`, the Activity worked out at 1.23.

`Cn1c(CC(=O)Nc2ccc(Br)cc2)cs/c1=N\c1cccc(Br)c1`: the Activity is listed as 1.99.

With `Cn1c(CC(=O)Nc2ccc(Oc3ccccc3)cc2)cs/c1=N\c1ccc(F)cc1F`, the Activity is 1.23.

In the case of `CCCCc1ccc(/N=c2/scc(CC(=O)Nc3ccc(OC)cc3)n2C)cc1`, the Activity was found to be 1.98.

Consider `CCc1ccc(NC(=O)Cc2cs/c(=N/c3ccc(I)cc3)n2C)cc1`, for which the Activity amounted to 1.97.

With `CCCCc1ccc(/N=c2/scc(CC(=O)Nc3ccc([N+](=O)[O-])cc3)n2C)cc1`, the Activity amounted to 1.11.

Regarding `COc1ccc(/N=c2/scc(CC(=O)Nc3ccc(OC(F)(F)F)cc3)n2C)cc1`, the Activity is recorded as 1.4.

Regarding `Cn1c(CC(=O)Nc2ccc(Oc3ccccc3)cc2)cs/c1=N/c1ccc(Oc2ccccc2)cc1`, the Activity is recorded as 1.4.

On to `CCc1ccc(NC(=O)Cc2cs/c(=N\c3ccc(C)cc3Br)n2C)cc1`, for which the Activity was 1.94.

For `CCc1ccc(NC(=O)Cc2cs/c(=N\c3ccc(F)c([N+](=O)[O-])c3)n2C)cc1`, the Activity was determined as 1.98.

For the molecule `CCc1ccc(NC(=O)Cc2cs/c(=N\c3ccc(Br)c(C)c3)n2C)cc1`, the Activity came out at 1.98.

As to `CCc1ccc(NC(=O)Cc2cs/c(=N/c3ccc(Cl)cc3)n2C)cc1`, the Activity is on record as 2.

For `CCCCc1ccc(NC(=O)Cc2cs/c(=N\c3ccc(F)c(Cl)c3)n2C)cc1`, the Activity is given as 1.3.

In the case of `Cn1c(CC(=O)Nc2ccc(Cl)cc2)cs/c1=N\c1ccc(OC(F)(F)F)cc1`, the Activity is 1.82.

Consider `COc1ccccc1/N=c1\scc(CC(=O)Nc2ccc(OC(F)(F)F)cc2)n1C`, for which the Activity is listed as 0.7.

As for `Cc1ccc(NC(=O)Cc2cs/c(=N/c3ccc(F)cc3)n2C)cc1`, the Activity was determined as 1.96.

With `CCc1ccc(NC(=O)Cc2cs/c(=N\c3ccc(C)cc3Cl)n2C)cc1`, the Activity came to 2.

In the case of `Cn1c(CC(=O)Nc2ccc(C#N)cc2)cs/c1=N\c1ccc(F)cc1F`, the Activity is recorded as 1.23.

Turning to `Cn1c(CC(=O)Nc2ccc(Cl)cc2)cs/c1=N\c1ccc(Oc2ccccc2)cc1`, the Activity was determined as 1.92.

For the molecule `COc1ccc(NC(=O)Cc2cs/c(=N\c3ccc(Cl)c(Cl)c3)n2C)cc1`, the Activity came out at 1.98.

In the case of `COc1ccc(NC(=O)Cc2cs/c(=N\c3ccc(F)cc3F)n2C)cc1`, the Activity worked out at 1.97.

On to `CCc1ccc(NC(=O)Cc2cs/c(=N/c3ccc(C#N)cc3)n2C)cc1`, for which the Activity stood at 1.92.

Regarding `COc1ccc(NC(=O)Cc2cs/c(=N/c3ccc(Cl)cc3)n2C)cc1`, the Activity came out at 1.97.

For the molecule `CCc1ccc(NC(=O)Cc2cs/c(=N/c3ccc(OC(F)(F)F)cc3)n2C)cc1` (stereo in doubt; 8), the Activity came to 1.93.

`CCc1ccc(NC(=O)Cc2cs/c(=N\c3ccc(Cl)cc3F)n2C)cc1`: the Activity amounted to 1.99.

With `Cn1c(CC(=O)Nc2ccc([N+](=O)[O-])cc2)cs/c1=N\c1cccc(F)c1`, the Activity is reported as 1.23.

Regarding `Cn1c(CC(=O)Nc2ccc([N+](=O)[O-])cc2)cs/c1=N/c1ccc(F)cc1`, the Activity is 0.9.

For `Cn1c(CC(=O)Nc2ccc(Oc3ccccc3)cc2)cs/c1=N/c1ccc(Br)cc1`, the Activity stood at 1.23.

Consider `CCc1ccc(NC(=O)Cc2cs/c(=N\c3ccc(Br)cc3F)n2C)cc1`, for which the Activity worked out at 2.

Turning to `CCOc1ccc(/N=c2/scc(CC(=O)Nc3ccc(OC)cc3)n2C)cc1`, the Activity was found to be 1.98.

Consider `Cn1c(CC(=O)Nc2ccc(Cl)cc2)cs/c1=N\c1ccc(F)c(Cl)c1`, for which the Activity amounted to 1.98.

As to `CCc1ccc(NC(=O)Cc2cs/c(=N/c3ccc(Oc4ccccc4)cc3)n2C)cc1`, the Activity was 1.98.

Regarding `Cc1ccc(NC(=O)Cc2cs/c(=N\c3ccc(F)cc3F)n2C)cc1`, the Activity turned out to be 1.99.

For `CCCCc1ccc(NC(=O)Cc2cs/c(=N\c3cccc(F)c3)n2C)cc1`, the Activity is 1.

In the case of `COc1ccc(NC(=O)Cc2cs/c(=N\c3ccc(Cl)cc3F)n2C)cc1`, the Activity came to 1.97.

For `CCCCc1ccc(/N=c2/scc(CC(=O)Nc3ccc(CC)cc3)n2C)cc1`, the Activity is listed as 1.99.
